# Values of other authors, collected in patent US20190008973A1, “INTRALIPID-IODINE FOR IMAGING” (priority 2017, published 2019).
# Entries after “also recorded” stand apart in the source; their conditions may differ. Read-outs that look alike come from different tables or passages of the source.
# How the values were obtained:
# [1] = system: cardiac arrest caused by bupivacaine intoxication; conditions: epinephrine 10 μg/kg, Intralipid 20% 4 ml/kg, vasopressin 2 IU; cited from earlier work
# brachial plexus [2] = conditions: 150 μg clonidine or 200 μg epinephrine with 0.25% bupivacaine; cited from earlier work
# [3] = system: hemodynamic compromise owing to bupivacaine intoxication; conditions: epinephrine 3 μg/kg or Intralipid 20% 2 ml/kg; cited from earlier work
# [4] = system: ischemia-reperfusion (IR) injury; conditions: sham-operated hearts; cited from earlier work
# [5] = system: ischemia/reperfusion injury; conditions: cited from earlier work
# hippocampus = conditions: cited from earlier work
# [6] = target: T1, ATPase of F1 particles from bovine heart mitochondria (Bos taurus, UniProt P00829+P19483); conditions: read-out: concentration required for 50% inhibition of ATPase activity; cited from earlier work
# T1 construct: F1 particles isolated from bovine heart mitochondria; from tissue; host or cells: bovine heart mitochondria
# [7] = system: spinal cord ischemia and reperfusion; conditions: intrathecal, cited from earlier work
# mitochondrial ATPase = target: T2, mitochondrial ATPase (Homo sapiens, UniProt P06576+P25705); conditions: reciprocal plots; cited from earlier work
# T2 construct: mitochondrial ATPase prepared by the chloroform extraction method; from tissue; host or cells: mitochondria
# brachial plexus [8] = conditions: in vivo; cited from earlier work
# [9] = system: levobupivacaine myocardial toxicity; conditions: pig, in vivo; cited from earlier work
# spinal anaesthesia = conditions: spinal with 40 mg CP 1%; outpatient knee arthroscopy; versus general anaesthesia 142 min, P=0.0047; cited from earlier work
# drug overdose = conditions: after lipid emulsion; cited from earlier work
# [10] = system: cocaine- and cocaethylene-induced cardiac depression; conditions: 0.25% lipid emulsion or SBE-β-CD; cited from earlier work
# [11] = system: I/R injury in late pregnancy; conditions: rat, in vivo; cited from earlier work
# [12] = system: cardiac and regional blood flow; conditions: propofol 4 mg/kg then 0.6 mg/kg/min; Intralipid 0.25 ml/kg then 0.06 ml/kg/min; cited from earlier work
# oxygen desaturation = conditions: in vivo; cited from earlier work
# [13] = system: propofol-mediated hypotension; conditions: cited from earlier work
# postoperative delirium = conditions: postoperative analgesia; cited from earlier work
# [14] = system: N43 hypothalamic neuronal cells; conditions: cited from earlier work
# clomipramine toxicity = conditions: 8 mL/kg 20% Intralipid or 2 mL/kg 8.4% sodium bicarbonate, n=4; cited from earlier work
# brachial plexus [15] = conditions: in vivo; cited from earlier work; remark: listed apart in the source
# brachial plexus [16] = conditions: 30 ml, cited from earlier work
# axillary plexus = conditions: in vivo; cited from earlier work
# brachial plexus [17] = conditions: in vivo; cited from earlier work; remark: listed apart in the source
# brachial plexus [18] = conditions: in vivo; cited from earlier work; remark: listed apart in the source
molecule,measurement,setting,value
CNC[C@H](O)c1ccc(O)c(O)c1 [epinephrine],survival,[1],71%
same,duration of block,brachial plexus [2],728.3 ± 35.8 min
same,survival,[3],100%
COc1cccc(-c2cc(=O)c3ccccc3o2)c1N [PD98059],effect of inhibitor on infarct-sparing effect of ILP,[4],only partially
same,effect of inhibitor on Intralipid-induced cardioprotection,[5],only partially
CCCCCC(O)C=CC=CCCCCCCCC(=O)O (stereo not shown) [13-hydroxyoctadecadienoic acid],increase of somatic paired-pulse facilitation,hippocampus,80%
CCCCNc1ccc(C(=O)OCCN(C)C)cc1 [tetracaine],IC50,[6],1.1 mM
same,neurologically normal animals,[7]; aortic occlusion 25 minutes,100%
same,neurologically normal animals,[7]; aortic occlusion 30 minutes,86%
same,kind of inhibition,mitochondrial ATPase,non-competitive
CCCCN1CCCC[C@H]1C(=O)Nc1c(C)cccc1C [levobupivacaine],need for rescue analgesics,brachial plexus [8],55%
same,haemodynamic effects of IV injection,[9],induced sinus bradycardia and reduced dMAP and LV dP/dtmax
"CCN(CC)CCOC(=O)c1ccc(N)cc1Cl [CP 1%, Chloroprocaine]",Time to reaching discharge criteria,spinal anaesthesia,117 min
Cn1c(=O)c2c(ncn2C)n(C)c1=O [caffeine],plasma caffeine level,drug overdose,> 120 mg/L
sulfobutylether-β-cyclodextrin [SBE-β-CD],cardiac depression in Langendorff hearts,[10],mild cardio depressant effect; also recorded: mild cardiodepressant effect
O=[N+]([O-])c1ccc2c(c1)S(=O)(=O)C=C2 [Stattic],effect of inhibitor on ITLD-induced cardioprotection,[11],fully abolished
"CC(C)c1cccc(C(C)C)c1O [Propofol, propofol]",cardiac and regional hemodynamic changes,[12],"increases in heart rate, coronary and carotid blood flows, and decreases in systemic vascular resistance and dP/dt"
same,odds ratio for oxygen desaturation,oxygen desaturation,5.22 (95% CI 1.78-15.35)
same,drop in MAP,[13]; 10 mg/kg IV,55+/−2%
same,lowering of MAP,[13]; under chlorisondamine and phenylephrine,12+/−4%
CCOC(=O)C1(c2ccccc2)CCN(C)CC1 [meperidine],delirium incidence,postoperative delirium,significantly higher
CCCCC/C=C\C/C=C\CCCCCCCC(=O)O [linoleic acid],palmitic acid-induced inflammation,[14],reduces palmitic acid-induced inflammation
"O=C([O-])O.[Na+] [bicarbonate, sodium bicarbonate]",circulation in second phase (severe toxicity),clomipramine toxicity,developed pulseless electrical activity
CCCN1CCCC[C@H]1C(=O)Nc1c(C)cccc1C [ropivacaine],need for rescue analgesics,brachial plexus [8],65%
same,duration of motor blocks,brachial plexus [15],12±5
same,duration of sensorial analgesia,brachial plexus [15],13.4±6
same,duration of motor block,brachial plexus [16]; listed as 0.5% ropivacaine,8.29 h
same,duration of sensory block,brachial plexus [16]; listed as 0.5% ropivacaine,9.02 h
same,onset of motor block,brachial plexus [16]; listed as 0.5% ropivacaine,22.23 ± 4.05 min
same,onset of sensory block,brachial plexus [16]; listed as 0.5% ropivacaine,17.79 ± 5.03 min
same,duration of motor block,brachial plexus [16]; listed as 0.75% ropivacaine,7.89 h
same,duration of sensory block,brachial plexus [16]; listed as 0.75% ropivacaine,8.87 h
same,onset of motor block,brachial plexus [16]; listed as 0.75% ropivacaine,22.33 ± 5.17 min
same,onset of sensory block,brachial plexus [16]; listed as 0.75% ropivacaine,18.48 ± 6.14 min
same,mean time of block offset,axillary plexus,13.5 h
same,muscle relaxation judged as excellent,brachial plexus [17],35/49
same,patients requiring supplementation,brachial plexus [18],8 of the 22
